Laboratory results reported in paper PMC12164272, “Ruthenium(II) Polypyridyl Complexes Containing COUBPY Ligands as Potent Photosensitizers for the Efficient Phototherapy of Hypoxic Tumors” (Journal of the American Chemical Society, 2025).
Read-outs that look alike come from different tables or passages of the source.

Assays:
CT-26 cancer cells = assay: (Photo)cytotoxicity in 2D monolayer cells under normoxia (21% O2), resazurin assay; assay type: cell-based, murine; conditions: for Phototherapeutic index (PI) = IC50(dark)/IC50(light): normoxia; for IC50: Mus musculus
[1] = cited from earlier work

**Q.** For `C=CC1=C(C)c2cc3[nH]c(cc4nc(cc5[nH]c(cc1n2)c(C)c5CCC(=O)O)C(CCC(=O)O)=C4C)c(C)c3C=C` [PpIX, Protoporphyrin IX], which “Phototherapeutic index (PI) = IC50(dark)/IC50(light)” value (shortened to “Phototherapeutic index”) (CT-26 cancer cells; 540 nm) is on record?
**A.** >312

**Q.** And the “Phototherapeutic index” value (CT-26 cancer cells; 595 nm)?
**A.** >250

**Q.** And the “Phototherapeutic index” value (CT-26 cancer cells; 620 nm)?
**A.** >151

**Q.** What about the “Phototherapeutic index” value (CT-26 cancer cells; 645 nm) of the same molecule?
**A.** >588

**Q.** And the “Phototherapeutic index” value (CT-26 cancer cells; 670 nm)?
**A.** >129

**Q.** What about the “Phototherapeutic index” value (CT-26 cancer cells; 740 nm) of the same molecule?
**A.** >50

**Q.** And the IC50 (CT-26 cancer cells; CT26, 540 nm, 9.0 J cm–2, normoxia 21% O2)?
**A.** 320 ± 90 nM

**Q.** What about the IC50 (CT-26 cancer cells; CT26, 595 nm, 3.4 J cm–2, normoxia 21% O2) of the same molecule?
**A.** 400 ± 10 nM

**Q.** What about the IC50 (CT-26 cancer cells; CT26, 620 nm, 6.7 J cm–2, normoxia 21% O2) of the same molecule?
**A.** 660 ± 210 nM

**Q.** And the IC50 (CT-26 cancer cells; CT26, 645 nm, 9.0 J cm–2, normoxia 21% O2)?
**A.** 170 ± 210 nM

**Q.** What about the IC50 (CT-26 cancer cells; CT26, 670 nm, 13.5 J cm–2, normoxia 21% O2) of the same molecule?
**A.** 770 ± 200 nM

**Q.** And the IC50 (CT-26 cancer cells; CT26, 740 nm, 12.6 J cm–2, normoxia 21% O2)?
**A.** 2100 ± 200 nM

**Q.** What about the IC50 (CT-26 cancer cells; CT26, 4 h, dark, normoxia 21% O2, 4 h incubation) of the same molecule?
**A.** > 100000 nM

**Q.** With `[Cl][Ru][Cl].c1ccc(-c2ccccn2)nc1.c1ccc(-c2ccccn2)nc1.c1ccc(-c2ccccn2)nc1` [[Ru(bpy)3]Cl2] as the molecule, how does the “reference singlet oxygen quantum yield ΦΔ,ref” value ([1]; aerated CH3CN) read?
**A.** 0.57

**Q.** With `CN(C)c1ccc2nc3ccc(=[N+](C)C)cc-3sc2c1` [methylene blue] as the molecule, how does the “reference singlet oxygen quantum yield ΦΔ,ref” value ([1]; aerated DCM) read?
**A.** 0.57
